Test results taken from ChEMBL document CHEMBL3124749, “Synthesis, biological evaluation and molecular modeling study of novel tacrine-carbazole hybrids as potential multifunctional agents for the treatment of Alzheimer's disease” (Eur J Med Chem, 2014).
The source made the active and inactive calls. The calls are words filed in the database; no cut-off is given here.

Key:
Mus musculus [1] = test: Inhibition of scopolamine-induced cognitive deficit in ICR mouse assessed as time spent swimming in Q1 quadrant at 25 micromol/kg, ip administered 1 hr prior to scopolamine challenge measured after 30 mins by morris water maze test (reference value: 11.76 +/-0.49s); format: functional
Mus musculus [2] = test: Inhibition of scopolamine-induced cognitive deficit in ICR mouse assessed as spontaneous alternation behaviour at 50 micromol/kg, ip administered 1 hr prior to scopolamine challenge measured after 30 mins by Y-maze test (reference value: 40.22 +/-3.54%); format: functional; design: scale not given: the % may be the effect or the level left
NG108-15 [3] = test: cells; conditions: Murinae, NG108-15, read-out: Activity
Description: Neuroprotective activity against H2O2-induced oxidative stress in mouse/rat NG108-15 cells assessed as cell viability at 100 uM incubated for 2 hrs prior to H2O2 challenge for 2 hrs by MTT assay

Mus musculus [4] = test: Inhibition of scopolamine-induced cognitive deficit in ICR mouse assessed as time spent swimming in Q1 quadrant at 50 micromol/kg, ip administered 1 hr prior to scopolamine challenge measured after 30 mins by morris water maze test (reference value: 11.76 +/-0.49s); format: functional
NG108-15 [5] = test: Neuroprotective activity against H2O2-induced oxidative stress in mouse/rat NG108-15 cells assessed as increase in cell viability at 1 uM incubated for 2 hrs prior to H2O2 challenge for 2 hrs by MTT assay; format: functional, cell-based
C6 = test: cells; conditions: Rattus norvegicus, C6, 24 h, read-out: Activity
Description: Neuroprotective activity against Abeta1-42 peptide-induced neurotoxicity in rat C6 cells assessed as cell viability at 100 uM after 24 hrs by MTT assay

Mus musculus [6] = test: Inhibition of scopolamine-induced cognitive deficit in ICR mouse assessed as spontaneous alternation behaviour at 25 micromol/kg, ip administered 1 hr prior to scopolamine challenge measured after 30 mins by Y-maze test (reference value: 40.22 +/-3.54%); format: functional; design: scale not given: the % may be the effect or the level left
Cholinesterase = Cholinesterase (Homo sapiens, UniProt P06276)
Sequence of Cholinesterase (P06276 whole entry): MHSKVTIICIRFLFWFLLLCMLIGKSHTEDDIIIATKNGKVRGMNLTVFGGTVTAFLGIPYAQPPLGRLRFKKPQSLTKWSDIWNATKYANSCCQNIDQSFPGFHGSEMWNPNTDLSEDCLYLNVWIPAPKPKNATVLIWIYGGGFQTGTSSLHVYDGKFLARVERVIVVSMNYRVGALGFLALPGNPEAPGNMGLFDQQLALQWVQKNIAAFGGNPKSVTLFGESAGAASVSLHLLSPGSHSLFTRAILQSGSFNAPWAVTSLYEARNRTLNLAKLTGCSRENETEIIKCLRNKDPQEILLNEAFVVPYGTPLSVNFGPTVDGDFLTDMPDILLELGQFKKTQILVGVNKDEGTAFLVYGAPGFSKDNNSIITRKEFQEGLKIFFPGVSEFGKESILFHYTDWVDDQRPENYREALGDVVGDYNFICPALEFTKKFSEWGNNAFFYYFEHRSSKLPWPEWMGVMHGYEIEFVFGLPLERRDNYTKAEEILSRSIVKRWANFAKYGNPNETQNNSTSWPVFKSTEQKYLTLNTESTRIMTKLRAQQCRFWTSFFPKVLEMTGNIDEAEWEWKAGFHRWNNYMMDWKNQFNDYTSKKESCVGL
Description: Inhibition of BuChE in human serum using butyrylthiocholine iodide as substrate measured every 30s for 5 mins by Ellman's spectrophotometric method

NG108-15 [7] = test: Neuroprotective activity against H2O2-induced oxidative stress in mouse/rat NG108-15 cells assessed as increase in cell viability at 10 uM incubated for 2 hrs prior to H2O2 challenge for 2 hrs by MTT assay; format: functional, cell-based

## COc1ccc2c(c1)[nH]c1c(CC=C(C)C)c(O)c(/C=N/CCCCCNc3c4c(nc5ccccc35)CCCC4)cc12
Mus musculus [1]
  Time: 17.21 s
Mus musculus [2]
  Activity: 59.8%
NG108-15 [3]
  viability at 100 µM: 78.4%
Mus musculus [4]
  Time: 17.86 s
NG108-15 [5]
  Activity: Active
C6
  viability at 100 µM: 66.3%
Mus musculus [6]
  Activity: 53.88%
Cholinesterase
  IC50: 52.1 µM

## CC(C)=CCc1c(O)c(/C=N/CCCCCNc2c3c(nc4ccccc24)CCCC3)cc2c1[nH]c1ccccc12
NG108-15 [7]
  Activity: Active
NG108-15 [3]
  viability at 100 µM: 68.8%
C6
  viability at 100 µM: 59.4%
Cholinesterase
  IC50: 19.4 µM

## COc1ccc2c(c1)[nH]c1c(CC=C(C)C)c(O)c(/C=N/CCCNc3c4c(nc5ccccc35)CCCC4)cc12
NG108-15 [3]
  viability at 100 µM: 74.7%
NG108-15 [5]
  Activity: Active
C6
  viability at 100 µM: 63%

## COc1ccc2c(c1)[nH]c1c(CC=C(C)C)c(O)c(C=O)cc12
NG108-15 [3]
  viability at 100 µM: 65.5%
Cholinesterase
  IC50: > 100 µM

## CC(C)=CCc1c(O)c(C=O)cc2c1[nH]c1ccccc12 [HEPTAPHYLLINE]
NG108-15 [3]
  viability at 100 µM: 59.8%
Cholinesterase
  IC50: > 100 µM
